Data reported in ChEMBL document CHEMBL4354827, “Discovery of Novel, Potent, Brain-Permeable, and Orally Efficacious Positive Allosteric Modulator of α7 Nicotinic Acetylcholine Receptor [4-(5-(4-Chlorophenyl)-4-methyl-2-propionylthiophen-3-yl)benzenesulfonamide]: Structure-Activity Relationship and Preclinical Characterization” (J Med Chem, 2020).
Each block holds one compound with its values, some of them ahead of it.

Key:
[1] = target: Neuronal acetylcholine receptor subunit alpha-7 (Homo sapiens, UniProt P36544); test: Positive allosteric modulatory activity against alpha7 nAChR in human IMR-32 cells assessed as potentiation of PNU-282987-induced Ca2+ […] at 1 uM by FLIPR assay relative to control; type: cell-based
[2] = Cmax in Beagle dog at 10 mg/kg, po after 0.25 to 144 hrs by LC-MS/MS analysis; type: ADME, organism-based, Canis lupus familiaris; design: dose 10 mg/kg, route oral; conditions: in vivo
[3] = Tmax in Wistar rat at 10 mg/kg, po after 0.25 to 144 hrs by LC-MS/MS analysis; type: ADME, organism-based; conditions: in vivo
[4] = Drug metabolism in rat liver microsomes assessed as metabolic rate at 1 uM preincubated for 5 mins followed by NADPH addition after 30 mins by LC-MS/MS analysis; type: ADME, Microsome; conditions: 0.5 h
[5] = Drug metabolism in dog liver microsomes assessed as metabolic rate at 1 uM preincubated for 5 mins followed by NADPH addition after 30 mins by LC-MS/MS analysis; type: ADME, Canis lupus familiaris, Microsome; conditions: 0.5 h
[6] = Drug metabolism in monkey liver microsomes assessed as metabolic rate at 1 uM preincubated for 5 mins followed by NADPH addition after 30 mins by LC-MS/MS analysis; type: ADME, Macaca mulatta, Microsome; conditions: rhesus monkey, 0.5 h
[7] = Metabolic stability in monkey liver microsomes assessed as compound remaining at 1 uM preincubated for 5 mins followed by NADPH addition and measured after 30 mins by LC-MS/MS analysis; type: ADME, Macaca mulatta, Microsome; conditions: rhesus monkey, read-out: Stability
[8] = Metabolic stability in mouse liver microsomes assessed as compound remaining at 1 uM preincubated for 5 mins followed by NADPH addition and measured after 30 mins by LC-MS/MS analysis; type: ADME, Microsome; conditions: read-out: Stability
[9] = Half life in Wistar rat at 1 mg/kg, iv after 0.083 to 144 hrs by LC-MS/MS analysis; type: ADME, organism-based; conditions: in vivo
[10] = Drug metabolism in mouse liver microsomes assessed as metabolic rate at 1 uM preincubated for 5 mins followed by NADPH addition after 30 mins by LC-MS/MS analysis; type: ADME, Microsome; conditions: 0.5 h
[11] = Cmax in Wistar rat at 1 mg/kg, iv after 0.083 to 144 hrs by LC-MS/MS analysis; type: ADME, organism-based; design: dose 1 mg/kg, route intravenous; conditions: in vivo
[12] = AUClast in Beagle dog at 1 mg/kg, iv after 0.083 to 144 hrs by LC-MS/MS analysis; type: ADME, organism-based, Canis lupus familiaris; design: dose 1 mg/kg, time 0.083-144 hr, route intravenous; conditions: in vivo
[13] = Cmax in Wistar rat at 10 mg/kg, po after 0.25 to 144 hrs by LC-MS/MS analysis; type: ADME, organism-based; design: dose 10 mg/kg, route oral; conditions: in vivo
[14] = Protein binding in human plasma at 5 uM incubated for 16 hrs under shaking condition by LC/MS/MS based rapid equilibrium dialysis method; type: ADME, cell-free; conditions: read-out: PPB (converted)
[15] = Tmax in Beagle dog at 10 mg/kg, po after 0.25 to 144 hrs by LC-MS/MS analysis; type: ADME, organism-based, Canis lupus familiaris; conditions: in vivo
[16] = Half life in Beagle dog at 1 mg/kg, iv after 0.083 to 144 hrs by LC-MS/MS analysis; type: ADME, organism-based, Canis lupus familiaris; conditions: in vivo
[17] = Protein binding in rat plasma at 5 uM incubated for 16 hrs under shaking condition by LC/MS/MS based rapid equilibrium dialysis method; type: ADME, cell-free; conditions: read-out: PPB (converted)
[18] = Metabolic stability in rat liver microsomes assessed as compound remaining at 1 uM preincubated for 5 mins followed by NADPH addition and measured after 30 mins by LC-MS/MS analysis; type: ADME, Microsome; conditions: read-out: Stability
[19] = Drug metabolism in human pooled liver microsomes assessed as metabolic rate at 1 uM preincubated for 5 mins followed by NADPH addition after 30 mins by LC-MS/MS analysis; type: ADME, Microsome; conditions: 0.5 h
[20] = Metabolic stability in human pooled liver microsomes assessed as compound remaining at 1 uM preincubated for 5 mins followed by NADPH addition and measured after 30 mins by LC-MS/MS analysis; type: ADME, Microsome; conditions: read-out: Stability
[21] = AUClast in Beagle dog at 10 mg/kg, po after 0.25 to 144 hrs by LC-MS/MS analysis; type: ADME, organism-based, Canis lupus familiaris; design: time upper 144 hr, dose 10 mg/kg, time lower 0.25 hr, route oral; conditions: in vivo
[22] = Cmax in Beagle dog at 1 mg/kg, iv after 0.083 to 144 hrs by LC-MS/MS analysis; type: ADME, organism-based, Canis lupus familiaris; design: dose 1 mg/kg, route intravenous; conditions: in vivo
[23] = AUC (0 to 144 hrs) in Wistar rat at 1 mg/kg, iv after 0.083 to 144 hrs by LC-MS/MS analysis; type: ADME, organism-based; design: time < 144 hr, dose 1 mg/kg, route intravenous; conditions: in vivo
[24] = Clearance in Beagle dog at 1 mg/kg, iv after 0.083 to 144 hrs by LC-MS/MS analysis; type: ADME, organism-based, Canis lupus familiaris; conditions: Beagle, in vivo
[25] = Clearance in Wistar rat at 1 mg/kg, iv after 0.083 to 144 hrs by LC-MS/MS analysis; type: ADME, organism-based; conditions: Wistar, in vivo
[26] = Tmax in Wistar rat at 1 mg/kg, iv after 0.083 to 144 hrs by LC-MS/MS analysis; type: ADME, organism-based; conditions: in vivo
[27] = Oral bioavailability in Beagle dog at 10 mg/kg after 0.25 to 144 hrs by LC-MS/MS analysis; type: ADME, organism-based, Canis lupus familiaris; conditions: in vivo
[28] = Volume of distribution at steady state in Beagle dog at 1 mg/kg, iv after 0.083 to 144 hrs by LC-MS/MS analysis; type: ADME, organism-based, Canis lupus familiaris; conditions: in vivo, read-out: Vdss
[29] = Oral bioavailability in Wistar rat at 10 mg/kg after 0.25 to 144 hrs by LC-MS/MS analysis; type: ADME, organism-based; conditions: in vivo
[30] = Tmax in Beagle dog at 1 mg/kg, iv after 0.083 to 144 hrs by LC-MS/MS analysis; type: ADME, organism-based, Canis lupus familiaris; conditions: in vivo
[31] = AUC (0 to 144 hrs) in Wistar rat at 10 mg/kg, po after 0.25 to 144 hrs by LC-MS/MS analysis; type: ADME, organism-based; design: dose 10 mg/kg, time < 144 hr, route oral; conditions: in vivo
[32] = Volume of distribution at steady state in Wistar rat at 1 mg/kg, iv after 0.083 to 144 hrs by LC-MS/MS analysis; type: ADME, organism-based; conditions: in vivo, read-out: Vdss
[33] = Metabolic stability in dog liver microsomes assessed as compound remaining at 1 uM preincubated for 5 mins followed by NADPH addition and measured after 30 mins by LC-MS/MS analysis; type: ADME, Canis lupus familiaris, Microsome; conditions: read-out: Stability

Sequence of Neuronal acetylcholine receptor subunit alpha-7 (P36544 whole entry): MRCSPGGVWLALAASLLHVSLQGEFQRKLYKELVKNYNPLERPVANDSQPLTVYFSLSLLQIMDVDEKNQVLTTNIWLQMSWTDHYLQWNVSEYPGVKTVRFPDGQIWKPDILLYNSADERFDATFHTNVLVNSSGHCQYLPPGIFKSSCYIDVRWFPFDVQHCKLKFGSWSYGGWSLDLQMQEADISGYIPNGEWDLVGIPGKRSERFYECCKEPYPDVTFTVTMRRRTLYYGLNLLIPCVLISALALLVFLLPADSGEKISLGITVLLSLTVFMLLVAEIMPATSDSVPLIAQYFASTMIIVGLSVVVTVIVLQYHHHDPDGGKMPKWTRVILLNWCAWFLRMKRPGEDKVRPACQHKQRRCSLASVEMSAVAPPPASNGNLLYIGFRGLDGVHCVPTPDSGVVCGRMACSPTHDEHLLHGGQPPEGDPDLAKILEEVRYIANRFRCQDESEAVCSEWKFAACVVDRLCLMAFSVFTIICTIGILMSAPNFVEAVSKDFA

Structure (SMILES): CCC(=O)c1sc(-c2cccc(Cl)c2)c(C)c1-c1ccc(S(N)(=O)=O)cc1
fold change (FC) [1]: 1

Structure (SMILES): CCC(=O)c1sc(-c2ccccc2Cl)c(C)c1-c1ccc(S(N)(=O)=O)cc1
fold change (FC) [1]: 1

Structure (SMILES): CCC(=O)c1sc(-c2ccccc2)c(C)c1-c1ccc(S(N)(=O)=O)cc1
fold change (FC) [1]: 2.4

Structure (SMILES): CCC(=O)c1sc(-c2ccoc2)c(C)c1-c1ccc(S(N)(=O)=O)cc1
fold change (FC) [1]: 1

Structure (SMILES): CCC(=O)c1sc(-c2ccncc2)c(C)c1-c1ccc(S(N)(=O)=O)cc1
fold change (FC) [1]: 1

Structure (SMILES): CCCN(CCO)C(=O)c1sc(-c2ccc(Cl)cc2)c(C)c1-c1ccc(S(N)(=O)=O)cc1
fold change (FC) [1]: 1

Structure (SMILES): Cc1c(-c2ccc(Cl)cc2)sc(C(=O)N(C)C)c1-c1ccc(S(N)(=O)=O)cc1
fold change (FC) [1]: 1

Structure (SMILES): CC(=O)c1sc(-c2ccc(Cl)cc2)c(C)c1-c1ccc(S(N)(=O)=O)cc1
fold change (FC) [1]: 7

Structure (SMILES): Cc1c(-c2ccc(Cl)cc2)sc(C(=O)N2CCCCC2)c1-c1ccc(S(N)(=O)=O)cc1
fold change (FC) [1]: 1

Structure (SMILES): CCC(=O)c1sc(-c2ccc(Cl)cc2Cl)c(C)c1-c1ccc(S(N)(=O)=O)cc1
fold change (FC) [1]: 12

Other lines, results leading:

fold change (FC) [1]: 15.3
Structure (SMILES): CCC(=O)c1sc(-c2ccc(C(F)(F)F)cc2)c(C)c1-c1ccc(S(N)(=O)=O)cc1

fold change (FC) [1]: 6
Structure (SMILES): CCOc1ccc(-c2sc(C(=O)CC)c(-c3ccc(S(N)(=O)=O)cc3)c2C)cc1

fold change (FC) [1]: 19
Structure (SMILES): CCC(=O)c1sc(-c2ccc(N(C)C)cc2)c(C)c1-c1ccc(S(N)(=O)=O)cc1

fold change (FC) [1]: 1
Structure (SMILES): CCC(=O)c1sc(-c2ccc(C(C)(C)C)cc2)c(C)c1-c1ccc(S(N)(=O)=O)cc1

Cmax [2]: 400 nM
Tmax [3]: 2 h
Drug metabolism [4]: 0.01 nmol/min/mg
Drug metabolism [5]: 0.02 nmol/min/mg
Drug metabolism [6]: 0.05 nmol/min/mg
remaining at 0.5 h, 1 µM [7]: 67%
remaining at 0.5 h, 1 µM [8]: 78%
half-life [9]: 1.4 h
Drug metabolism [10]: 0.03 nmol/min/mg
Cmax [11]: 900 nM
AUC(0-t) [12]: 3.2 µM·h
Cmax [13]: 3000 nM
fraction unbound at 16 h, 5 µM [14]: 0.002
Tmax [15]: 1.17 h
half-life [16]: 2 h
fraction unbound at 16 h, 5 µM [17]: 0.003
remaining at 0.5 h, 1 µM [18]: 97%
Drug metabolism [19]: 0.03 nmol/min/mg
remaining at 0.5 h, 1 µM [20]: 81%
AUC(0-t) [21]: 1.3 µM·h
Cmax [22]: 2300 nM
AUC(0-t) at 144 h [23]: 1.3 µM·h
clearance [24]: 12 mL/min/kg
clearance [25]: 31 mL/min/kg
Tmax [26]: 4.8 min
bioavailability [27]: 4%
Vd [28]: 2 L/kg
bioavailability [29]: 63%
Tmax [30]: 0.25 h
AUC(0-t) at 144 h [31]: 8.2 µM·h
fold change (FC) [1]: 22
Vd [32]: 3 L/kg
remaining at 0.5 h, 1 µM [33]: 84%
Structure (SMILES): CCC(=O)c1sc(-c2ccc(OC)cc2)c(C)c1-c1ccc(S(N)(=O)=O)cc1

fold change (FC) [1]: 7
Structure (SMILES): CCC(=O)c1sc(-c2ccc(C3CC3)cc2)c(C)c1-c1ccc(S(N)(=O)=O)cc1

fold change (FC) [1]: 8.7
Structure (SMILES): CCC(=O)c1sc(-c2ccc(F)cc2)c(C)c1-c1ccc(S(N)(=O)=O)cc1
